Laboratory results taken from patent US11547681B2, “N-acylethanolamide derivatives and uses thereof” (ELIEM THERAPEUTICS, INC., priority 2016, dated 2023).
Read-outs that look alike come from different tables or passages of the source.

Test: Simulated intestinal fluid (SIF) stability in the presence of various enzymes
Assay type: in vitro ADME
Conditions: 1 μM
Method: (§1) Studies were carried out in simulated intestinal fluid in the presence of various enzymes. Simulated intestinal fluid was prepared by dissolving 6.8 g of monobasic potassium phosphate in 1.0 L of water. Aliquots of this solution were taken and the pH was adjusted to 6.8. Individual enzymes were then spiked into aliquots for each experiment. A DMSO stock was first prepared for the test article. Aliquots of the DMSO solution were dosed into 700 μL of matrix, which had been pre-warmed to 37° C., at a final test article concentration of 1 μM. […] Samples were stored at 4° C. until the end of the experiment. After the final time point was sampled, the plate was mixed and then centrifuged at 3,000 rpm for 10 minutes. Calibration standards were prepared in matched matrix. […] Analytical conditions are outlined in Appendix 8-1.
as §1, with “10-1.” for “8-1.”
Studies were carried out in simulated intestinal fluid in the presence of various enzymes. Simulated intestinal fluid was prepared by dissolving 6.8 g of monobasic potassium phosphate in 1.0 L of water. Aliquots of this solution were taken and the pH was adjusted to 6.8. Individual enzymes were then spiked into aliquots for each experiment. A DMSO stock was first prepared for test article. Aliquots of the DMSO solution were dosed into 700 μL of matrix, which had been pre-warmed to 37° C., at a final test article concentration of 1 μM. […] Samples were stored at 4° C. until the end of experiment. After final time point was sampled, the plate was mixed and then centrifuged at 3,000 rpm for 10 minutes. Calibration standards were prepared in matched matrix. […] Analytical conditions are outlined in Appendix 13-1.
as §1, with “17-1.” for “8-1.”

[1] = SIF + Carboxypeptidase A, 0 min
[2] = SIF + Carboxypeptidase A, 15 min
[3] = SIF + Carboxypeptidase A, 30 min
[4] = SIF + Carboxypeptidase A, 60 min
[5] = SIF + Carboxypeptidase A, 120 min
[6] = SIF + Carboxypeptidase B, 0 min
[7] = SIF + Carboxypeptidase B, 15 min
[8] = SIF + Carboxypeptidase B, 30 min
[9] = SIF + Carboxypeptidase B, 60 min
[10] = SIF + Carboxypeptidase B, 120 min
[11] = simulated intestinal fluid with carboxypeptidase A, pH 6.8, SIF + Carboxypeptidase A, read-out: Half-life
[12] = simulated intestinal fluid with carboxypeptidase B, pH 6.8, SIF + Carboxypeptidase B, read-out: Half-life
[13] = simulated intestinal fluid with chymotrypsin, pH 6.8, SIF + Chymotrypsin, read-out: Half-life
[14] = simulated intestinal fluid with elastase, pH 6.8, SIF + Elastase, read-out: Half-life
[15] = simulated intestinal fluid with pancreatin, pH 6.8, SIF + Pancreatin, read-out: Half-life
[16] = simulated intestinal fluid with trypsin, pH 6.8, SIF + Trypsin, read-out: Half-life

Row | % Remaining of Initial (n = 1) [1] | % Remaining of Initial (n = 1) [2] | % Remaining of Initial (n = 1) [3] | % Remaining of Initial (n = 1) [4] | % Remaining of Initial (n = 1) [5] | % Remaining of Initial (n = 1) [6] | % Remaining of Initial (n = 1) [7] | % Remaining of Initial (n = 1) [8] | % Remaining of Initial (n = 1) [9] | % Remaining of Initial (n = 1) [10] | % Remaining of Initial (n = 1) (SIF + Chymotrypsin, 0 min) | % Remaining of Initial (n = 1) (SIF + Chymotrypsin, 15 min) | % Remaining of Initial (n = 1) (SIF + Chymotrypsin, 30 min) | % Remaining of Initial (n = 1) (SIF + Chymotrypsin, 60 min) | % Remaining of Initial (n = 1) (SIF + Chymotrypsin, 120 min) | % Remaining of Initial (n = 1) (SIF + Elastase, 0 min) | % Remaining of Initial (n = 1) (SIF + Elastase, 15 min) | % Remaining of Initial (n = 1) (SIF + Elastase, 30 min) | % Remaining of Initial (n = 1) (SIF + Elastase, 60 min) | % Remaining of Initial (n = 1) (SIF + Elastase, 120 min) | Compound | other results
1 | 100% | 79% | 70% | 56% | 43% | 100% | 75% | 54% | 40% | 17% | 100% | 78% | 70% | 60% | 58% | 100% | 61% | 42% | 30% | 28% | CCCCCCCCCCCCCCCC(=O)NCCOC(=O)CCC [Compound I-2] | % Remaining of Initial (n = 1) (SIF + Pancreatin, 0 min): 100%; % Remaining of Initial (n = 1) (SIF + Pancreatin, 15 min): 93%; % Remaining of Initial (n = 1) (SIF + Pancreatin, 30 min): 91%; % Remaining of Initial (n = 1) (SIF + Pancreatin, 60 min): 98%; % Remaining of Initial (n = 1) (SIF + Pancreatin, 120 min): 60%; % Remaining of Initial (n = 1) (SIF + Trypsin, 0 min): 100%; % Remaining of Initial (n = 1) (SIF + Trypsin, 15 min): 82%; % Remaining of Initial (n = 1) (SIF + Trypsin, 30 min): 72%; % Remaining of Initial (n = 1) (SIF + Trypsin, 60 min): 75%; % Remaining of Initial (n = 1) (SIF + Trypsin, 120 min): 46%; half-life at 1 μM [11]: 1.53 h; half-life at 1 μM [12]: 0.717 h; half-life at 1 μM (simulated intestinal fluid with chymotrypsin, pH 6.8, SIF + Chymotrypsin, outside the sampled time range, read-out: Half-life, calculated (in parentheses)): 2.4 h; half-life at 1 μM [13]: > 2 h; half-life at 1 μM [14]: 0.617 h; half-life at 1 μM (simulated intestinal fluid with pancreatin, pH 6.8, SIF + Pancreatin, outside the sampled time range, read-out: Half-life, calculated (in parentheses)): 3.42 h; half-life at 1 μM [15]: > 2 h; half-life at 1 μM (simulated intestinal fluid with trypsin, pH 6.8, SIF + Trypsin, outside the sampled time range, read-out: Half-life, calculated (in parentheses)): 2.02 h; half-life at 1 μM [16]: > 2 h
2 | 100% | 76% | 66% | 36% | 20% | 100% | 86% | 77% | 41% | 15% | 100% | 102% | 84% | 61% | 53% | 100% | 94% | 61% | 44% | 29% | CCCCCCCCCCCCCCCC(=O)NCCOC(=O)CCC(=O)OCC(COC(=O)CCCCCCC)OC(=O)CCCCCCC (stereo not drawn) [Compound I-3, PEA-Succinate-Glycerol-Di-Caprylic] | % Remaining of Initial (n = 1) (SIF + Pancreatin, 0 min): 100%; % Remaining of Initial (n = 1) (SIF + Pancreatin, 15 min): <1.0%; % Remaining of Initial (n = 1) (SIF + Pancreatin, 30 min): <1.0%; % Remaining of Initial (n = 1) (SIF + Pancreatin, 60 min): <1.0%; % Remaining of Initial (n = 1) (SIF + Pancreatin, 120 min): <1.0%; % Remaining of Initial (n = 1) (SIF + Trypsin, 0 min): 100%; % Remaining of Initial (n = 1) (SIF + Trypsin, 15 min): 67%; % Remaining of Initial (n = 1) (SIF + Trypsin, 30 min): 60%; % Remaining of Initial (n = 1) (SIF + Trypsin, 60 min): 55%; % Remaining of Initial (n = 1) (SIF + Trypsin, 120 min): 43%; half-life at 1 μM [11]: 0.767 h; half-life at 1 μM [12]: 0.817 h; half-life at 1 μM [13]: 1.78 h; half-life at 1 μM [14]: 0.917 h; half-life at 1 μM [15]: < 0.0167 h; half-life at 1 μM [16]: 1.55 h
